Assay results: patent US20260209297A1, “ANTIMICROBIAL PEPTIDES AND MODIFICATIONS THEREOF” (priority 2022, published 2026)

System: Fusarium graminearum PH-1
Format: cell-based
Details: for F. graminearum PH-1 MIC Day 1: Fusarium graminearum PH-1, 96-well, resazurin viability; for MIC against F. graminearum: F. graminearum PH-1, Example 7

Substance	F. graminearum PH-1 MIC Day 1 [µM]	MIC against F. graminearum [µM]
PD82.1.1: SEQ ID NO: 538 with N-terminal alanine; Pinus sylvestris wild-type defensin, expressed in Pichia pastoris (RTCLSKSHRFHGYCVRSSSCKEICQTERFLSGECRHTHLGNRRCFCEKPC; N-terminal alanine added; listed as Pinus sylvestris)	1.5	–
PD83.1.1: SEQ ID NO: 542 with N-terminal alanine; Eucalyptus grandis wild-type defensin, expressed in Pichia pastoris (RMCESQSHKFHGLCMSDRTCVVVCKEEDFDDGKCRGFRHRCFCRKPC; N-terminal alanine added; listed as Eucalyptus grandis)	>12	–
PD84.1.1: SEQ ID NO: 546 with N-terminal alanine; Striga asiatica wild-type defensin, expressed in Pichia pastoris (KICEYKSERFWGVCLSDIKCADVCKDESFESGDCQGLRRRCMCYNHC; N-terminal alanine added; listed as Striga asiatica)	>12	–
PD85.1.1: SEQ ID NO: 551 with N-terminal alanine; Panax ginseng wild-type defensin, expressed in Pichia pastoris (KLCEKASLTWSGKCGNTQNCDKQCQNWESAKHGACHKRPTWKCFCYSDC; N-terminal alanine added; Panax ginseng)	>12	–
PD86.1.1: SEQ ID NO: 555 with N-terminal alanine; Eryanthe guttata wild-type defensin, expressed in Pichia pastoris (SLCETPSRYFNGICFSRRNCGAICEKEGFSSGRCKAFKCVCGKDC; N-terminal alanine added; listed as Eryanthe guttata)	6	–
PD87.1.1: SEQ ID NO: 560 with N-terminal alanine; Raphanus sativus wild-type defensin, expressed in Pichia pastoris (KLCQRPSGTWSGVCGNNNACKNQCIRLEKARHGSCNYVFPAHKCICYFPC; N-terminal alanine added; listed as Raphanus sativus)	0.75	0.75
PD88.1.1: SEQ ID NO: 565 with N-terminal alanine; Fraxinus excelsior wild-type defensin, expressed in Pichia pastoris (KHCAKLSKGWHGFCAPHKCSRYCIHHEGAYDGACLKHHHSKHIGCYCYYRHC; N-terminal alanine added; Fraxinus excelsior)	>12	–
PD89.1.2: SEQ ID NO: 569 with N-terminal alanine; Crambe maritima wild-type defensin, expressed in Pichia pastoris (KLCRKPSGTWSGLCANSDSCRKQCINLEKAKDGSCKYKFPAHKCFCYY; N-terminal alanine added; listed as Crambe maritima)	12	–
PD92.1.1: SEQ ID NO: 583 with N-terminal alanine; Trifolium pratense wild-type defensin, expressed in Pichia pastoris (RKCESKRRWIYGNCLSDEKCASDCLVKGFLFGKCRGYDNRCYCKKPRC; N-terminal alanine added; Trifolium pratense)	3	–
PD93.1.1: SEQ ID NO: 588 with N-terminal alanine; Fragaria vesca wild-type defensin, expressed in Pichia pastoris (KICEVPSKTFKGLCVKDRNCVVRCHSEGYGNGKCSHVRRQCMCLKICD; N-terminal alanine added; listed as Fragaria vesca)	>12	–
PD94.1.1: SEQ ID NO: 593 with N-terminal alanine; Solanum lycopersicum wild-type defensin, expressed in Pichia pastoris (KLCQYHSETFHGVCVTGNNCNRHCQRENFEGGRCHGIRHYRCVCYRTC; N-terminal alanine added; listed as Solanum lycopersicum)	>12	–
PD95.1.1: SEQ ID NO: 598 with N-terminal alanine; Mimulus guttatus wild-type defensin, expressed in Pichia pastoris (RHCESPSHRFKGICVRKSNCAAICQTEGFSSGKCRGFRSRCVCIKHC; N-terminal alanine added; listed as Mimulus guttatus)	0.75	0.75
PD96.1.1: SEQ ID NO: 603 with N-terminal alanine; Thlaspi arvense wild-type defensin, expressed in Pichia pastoris (RMCESKSHEFKGFCTKWRICRDVCITEGFTDGGCHGVLRHCVCKKPCLLSN; N-terminal alanine added; Thlaspi arvense)	0.75	0.75
PD99.1.1: SEQ ID NO: 616 with N-terminal alanine; Theobroma cacao wild-type defensin, expressed in Pichia pastoris (KLCQKRSKTWTGPCIKTKNCDHQCRKWEKAQHGACHWQWPGFACFCYVNC; N-terminal alanine added; Theobroma cacao)	0.75	0.75
PD120.1.1: SEQ ID NO: 706 with N-terminal alanine; Setaria italica wild-type defensin, expressed in Pichia pastoris (DRCETHSRTYKGRCNNHNCWSICITEGNTGGFCKGTLLLKCMCTSEC; N-terminal alanine added; listed as Setaria italica)	12	–
PD121.1.1: SEQ ID NO: 711 with N-terminal alanine; Setaria italica wild-type defensin, expressed in Pichia pastoris (RHCLSQSHHFKGLCLSSSNCANVCRVERFPDGECQTTAGTRKCFCKRIC; N-terminal alanine added; listed as Setaria italica)	1.5	–
PD123.1.1: SEQ ID NO: 719 with N-terminal alanine; Striga asiatica wild-type defensin, expressed in Pichia pastoris (RKCESKSQQFKGLCFIKANCAAVCRTEGFHSGHCRGFRRRCYCTKHC; N-terminal alanine added; listed as Striga asiatica)	6	–
PD124.1.1: SEQ ID NO: 723 with N-terminal alanine; Rubus argutus wild-type defensin, expressed in Pichia pastoris (RICEVPSKTFIGLCFKDTNCIVRCRSEGYGYGKCSHFRRRCRCFKPCP; N-terminal alanine added; listed as Rubus argutus)	2	–
PD125.1.1: SEQ ID NO: 728 with N-terminal alanine; wild-type defensin-like protein, expressed in Pichia pastoris (VICPLESKRSKTWSGVCAQSKNCDKQCKTWERAKHGACHATYGKVLGVKACMHAGNK; N-terminal alanine added; listed as Prunus armeniaca)	8	–
